Assay results reported in patent US8735406B2, “8-oxodihydropurine derivative” (Dainippon Sumitomo Pharma Co., Ltd., priority 2009, dated 2014).

Molecular target: T1, FAAH (Rattus norvegicus, UniProt P97612)
T1 construct: Preparation of Rat Brain Membranes Preparations (FAAH Enzyme Solution); from tissue; host or cells: rat cerebrum (brain membrane preparation)
T1 sequence (P97612 1-579): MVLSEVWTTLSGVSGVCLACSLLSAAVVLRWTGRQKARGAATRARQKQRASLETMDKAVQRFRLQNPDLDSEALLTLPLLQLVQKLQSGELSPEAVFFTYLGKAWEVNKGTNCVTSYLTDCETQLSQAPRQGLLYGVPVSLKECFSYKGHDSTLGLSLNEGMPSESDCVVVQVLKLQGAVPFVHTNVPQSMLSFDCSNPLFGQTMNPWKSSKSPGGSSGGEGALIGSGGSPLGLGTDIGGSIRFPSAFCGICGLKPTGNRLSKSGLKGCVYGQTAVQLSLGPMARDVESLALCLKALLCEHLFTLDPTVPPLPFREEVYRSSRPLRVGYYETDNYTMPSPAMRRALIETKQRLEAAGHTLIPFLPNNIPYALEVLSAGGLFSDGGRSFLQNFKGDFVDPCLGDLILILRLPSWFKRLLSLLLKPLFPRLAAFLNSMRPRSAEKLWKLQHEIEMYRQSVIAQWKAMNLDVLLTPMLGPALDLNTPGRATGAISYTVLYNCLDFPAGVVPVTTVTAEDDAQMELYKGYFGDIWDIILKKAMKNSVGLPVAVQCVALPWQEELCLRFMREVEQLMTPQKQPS
Experiment: Determination of FAAH inhibitory activity in rat (rat brain membrane preparations, [3H]-anandamide hydrolysis)
Assay type: biochemical
Conditions: rat brain membrane preparations; for inhibition at 0.1 µM: 100 nM test substance, read-out: FAAH Inhibition, Inhibition Rate at 100 nM; for IC50: test substance 0.1 nM to 1 μM, read-out: FAAH Inhibition IC50
Method in brief: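 Rat cerebrum membranes (100 μg/mL protein) preincubated 10 min at 37 °C with compound (1% DMSO) in pH 7.6 Tris buffer with 1.5% BSA. Substrate 2 nM [3H]-anandamide plus 2 μM anandamide added for 10 min at 37 °C. [3H]-ethanolamine in the aqueous phase after chloroform/methanol extraction was scintillation counted; IC50 over 0.1 nM–1 μM.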

inhibition at 0.1 µM | IC50 | SMILES
105% | 11 nM | CCN(C)C(=O)n1c(=O)n(C)c2nc(Cc3ccc(OC)cc3)ncc21 [Example 280, N-Ethyl-2-(4-methoxybenzyl)-N,9-dimethyl-8-oxo-8,9-dihydro-7H-purine-7-carboxamide]
98% | 14 nM | CCN(C)C(=O)n1c(=O)n(C)c2nc(Cc3ccc(C)cc3)ncc21 [Example 281, N-Ethyl-N,9-dimethyl-2-(4-methylbenzyl)-8-oxo-8,9-dihydro-7H-purine-7-carboxamide]
97% | 10 nM | CCN(C)C(=O)n1c(=O)n(C)c2nc(Cc3cccc(C)c3)ncc21 [Example 282, N-Ethyl-N,9-dimethyl-2-(3-methylbenzyl)-8-oxo-8,9-dihydro-7H-purine-7-carboxamide]
100% | 3 nM | CCN(C)C(=O)n1c(=O)n(C)c2nc(Cc3cccc(F)c3)ncc21 [Example 284, N-Ethyl-2-(3-fluorobenzyl)-N,9-dimethyl-8-oxo-8,9-dihydro-7H-purine-7-carboxamide]
86% | 59 nM | Cn1c(=O)n(C(=O)N2CCCC2)c2nc(Cc3cccc(F)c3)ncc21 [Example 286, 2-(3-Fluorobenzyl)-7-methyl-9-(pyrrolidin-1-ylcarbonyl)-7,9-dihydro-8H-purine-8-one]
96% | 29 nM | COc1ccc(Cc2ncc3c(n2)n(C(=O)N2CCCC2)c(=O)n3C)cc1 [Example 287, 2-(4-Methoxybenzyl)-7-methyl-9-(pyrrolidin-1-ylcarbonyl)-7,9-dihydro-8H-purine-8-one]
86% | 47 nM | COc1cccc(Cc2ncc3c(n2)n(C(=O)N2CCCC2)c(=O)n3C)c1 [Example 288, 2-(3-Methoxybenzyl)-7-methyl-9-(pyrrolidin-1-ylcarbonyl)-7,9-dihydro-8H-purine-8-one]
96% | 15 nM | Cc1ccc(Cc2ncc3c(n2)n(C(=O)N2CCCC2)c(=O)n3C)cc1 [Example 289, 7-Methyl-2-(4-methylbenzyl)-9-(pyrrolidin-1-ylcarbonyl)-7,9-dihydro-8H-purine-8-one]
93% | 47 nM | Cn1c(=O)n(C(=O)N2CCCC2)c2nc(CCc3ccccc3)ncc21 [Example 290, 7-Methyl-2-(2-phenylethyl)-9-(pyrrolidin-1-ylcarbonyl)-7,9-dihydro-8H-purine-8-one]
97% | 24 nM | Cn1c(=O)n(C(=O)N2CCCC2)c2nc(Cc3ccc(F)c(F)c3)ncc21 [Example 293, 2-(3,4-Difluorobenzyl)-7-methyl-9-(pyrrolidin-1-ylcarbonyl)-7,9-dihydro-8H-purine-8-one]
93% | 37 nM | Cc1cccc(Cc2ncc3c(n2)n(C(=O)N2CCCC2)c(=O)n3C)c1 [Example 294, 7-Methyl-2-(3-methylbenzyl)-9-(pyrrolidin-1-ylcarbonyl)-7,9-dihydro-8H-purine-8-one]
91% | 43 nM | Cn1c(=O)n(C(=O)N2CCCC2)c2nc(Cc3ccc(F)cc3)ncc21 [Example 295, 2-(4-Fluorobenzyl)-7-methyl-9-(pyrrolidin-1-ylcarbonyl)-7,9-dihydro-8H-purine-8-one]
92% | 45 nM | Cn1c(=O)n(C(=O)N2CCCC2)c2nc(Cc3ccc(F)cc3F)ncc21 [Example 296, 2-(2,4-Difluorobenzyl)-7-methyl-9-(pyrrolidin-1-ylcarbonyl)-7,9-dihydro-8H-purine-8-one]
89% | 47 nM | Cn1c(=O)n(C(=O)N2CCCC2)c2nc(Cc3cc(F)ccc3F)ncc21 [Example 297, 2-(2,5-Difluorobenzyl)-7-methyl-9-(pyrrolidin-1-ylcarbonyl)-7,9-dihydro-8H-purine-8-one]
98% | 48 nM | Cn1c(=O)n(C(=O)N2CCCC2)c2nc(Cc3c(F)cccc3F)ncc21 [Example 298, 2-(2,6-Difluorobenzyl)-7-methyl-9-(pyrrolidin-1-ylcarbonyl)-7,9-dihydro-8H-purine-8-one]
100% | 37 nM | Cn1c(=O)n(C(=O)N2CCCC2)c2nc(Cc3cc(F)cc(F)c3)ncc21 [Example 299, 2-(3,5-Difluorobenzyl)-7-methyl-9-(pyrrolidin-1-ylcarbonyl)-7,9-dihydro-8H-purine-8-one]
88% | 40 nM | Cn1c(=O)n(C(=O)N2CCCC2)c2nc(Cc3ccccc3F)ncc21 [Example 300, 2-(2-Fluorobenzyl)-7-methyl-9-(pyrrolidin-1-ylcarbonyl)-7,9-dihydro-8H-purine-8-one]

inhibition at 0.1 µM | IC50 | SMILES
90% | 23 nM | O=C(N1CCCC1)n1c(=O)[nH]c2nc(-c3ccccc3)ncc21 [Example 301, 2-phenyl-7-(pyrrolidin-1-ylcarbonyl)-7,9-dihydro-8H-purine-8-one]
94% | 46 nM | O=C(N1CCCC1)n1c(=O)n(CCO)c2nc(-c3ccccc3)ncc21 [Example 302, 9-(2-hydroxyethyl)-2-phenyl-7-(pyrrolidin-1-ylcarbonyl)-7,9-dihydro-8H-purine-8-one]
101% | 7 nM | CCn1c(=O)n(C(=O)N2CCCC2)c2cnc(-c3ccccc3)nc21 [Example 303]
100% | 9 nM | CCCn1c(=O)n(C(=O)N2CCCC2)c2cnc(-c3ccccc3)nc21 [Example 304, 2-Phenyl-9-propyl-7-(pyrrolidin-1-ylcarbonyl)-7,9-dihydro-8H-purine-8-one]
99% | 12 nM | CC(C)n1c(=O)n(C(=O)N2CCCC2)c2cnc(-c3ccccc3)nc21 [Example 305]
99% | 15 nM | CCCCn1c(=O)n(C(=O)N2CCCC2)c2cnc(-c3ccccc3)nc21 [Example 306, 9-Butyl-2-phenyl-7-(pyrrolidin-1-ylcarbonyl)-7,9-dihydro-8H-purine-8-one]
96% | 41 nM | CC(C)Cn1c(=O)n(C(=O)N2CCCC2)c2cnc(-c3ccccc3)nc21 [Example 307]
66% | 74 nM | O=C(N1CCCC1)n1c(=O)n(Cc2ccccc2)c2nc(-c3ccccc3)ncc21 [Example 308]
5% | > 100 nM | O=C(N1CCCC1)n1c(=O)n(CCN2CCCC2)c2nc(-c3ccccc3)ncc21 [Example 310]
88% | 53 nM | Cn1c(=O)n(C(=O)N2CCCC2)c2cnc(-c3cccc(O)c3)nc21 [Example 311, 2-(3-hydroxyphenyl)-9-methyl-7-(pyrrolidin-1-ylcarbonyl)-7,9-dihydro-8H-purine-8-one]
99% | 8 nM | Cn1c(=O)n(C(=O)N2CCCC2)c2nc(CCc3ccc(C(F)(F)F)cc3)ncc21 [Example 312, 7-methyl-9-(pyrrolidin-1-ylcarbonyl)-2-{2-[4-(trifluoromethyl)phenyl]ethyl}-7,9-dihydro-8H-purine-8-one]
103% | 11 nM | Cn1c(=O)n(C(=O)N2CCCC2)c2nc(CCc3cccc(C(F)(F)F)c3)ncc21 [Example 313, 7-Methyl-9-(pyrrolidin-1-ylcarbonyl)-2-{2-[3-(trifluoromethyl)phenyl]ethyl}-7,9-dihydro-8H-purine-8-one]
100% | 37 nM | Cn1c(=O)n(C(=O)N2CCCC2)c2nc(CCc3ccc(F)cc3)ncc21 [Example 314, 2-[2-(4-Fluorophenyl)ethyl]-7-methyl-9-(pyrrolidin-1-ylcarbonyl)-7,9-dihydro-8H-purine-8-one]
95% | 19 nM | Cn1c(=O)n(C(=O)N2CCCC2)c2nc(CCc3cccc(F)c3)ncc21 [Example 315, 2-[2-(3-Fluorophenyl)ethyl]-7-methyl-9-(pyrrolidin-1-ylcarbonyl)-7,9-dihydro-8H-purine-8-one]
80% | 55 nM | Cn1c(=O)n(C(=O)N2CCCC2)c2cnc(C3CCCCC3)nc21 [Example 316, 2-cyclohexy-9-methyl-7-(pyrrolidin-1-ylcarbonyl)-7,9-dihydro-8H-purine-8-one]
103% | < 10 nM | Cn1c(=O)n(C(=O)N2CCCC2)c2cnc(-c3cccc(N)c3)nc21 [Example 317, 2-(3-aminophenyl)-9-methyl-7-(pyrrolidin-1-ylcarbonyl)-7,9-dihydro-8H-purine-8-one]
45% | – | COc1cccc(-c2ncc3c(n2)n(C(=O)N(C)C)c(=O)n3C)c1 [Example 322, 2-(3-Methoxyphenyl)-N,N,7-trimethyl-8-oxo-7,8-dihydro-9H-purine-9-carboxamide]
